In patent US20150284667A1, “ALCOHOLIC BEVERAGES WITH HEALTH-BENEFITTING AND PROTECTIVE CHARACTERISTICS” (Cerebral Spirits Corporation, priority 2014, published 2015):

Experiments:
[1] = Solubility in ethanol
[2] = system: breast cancer and liver cancer; conditions: animal studies; cited from earlier work
[3] = system: hepatocytes; conditions: cited from earlier work

| Solubility in ethanol [1] | SMILES | Antitumor activity [2] | Protection of hepatocytes against ethanol-induced cell cytotoxicity [3] |
| --- | --- | --- | --- |
| ethanol soluble | Oc1ccc(C=Cc2cc(O)cc(O)c2)cc1 [Resveratrol, resveratrol] | – | – |
| – | COc1cc(/C=C/C(=O)O)ccc1O [Ferulic acid, ferulic acid] | direct antitumor activity | – |
| ethanol soluble | CCNC(=O)CC[C@H](N)C(=O)O [L-theanine, gamma-glutamylethylamide] | – | significantly protect hepatocytes |
